From paper PMC12615753, “Glutathione as a taste modulator: molecular mechanisms of interaction with umami and sweet taste receptors” (Food Chemistry: Molecular Sciences, 2025)

Molecular target: T1, hTAS1R1 A302W/rTAS1R3 (UniProt Q7RTX1+Q923K1, A302W)
T1 construct: UniProtKB number Q7RTX1–1); The cDNA coding region of rTAS1R3 was synthesized with optimized-codon usage for human expression; expressed in transfected cells; host or cells: HEK293T/17
T1 sequence (Q7RTX1 21-841 A302W): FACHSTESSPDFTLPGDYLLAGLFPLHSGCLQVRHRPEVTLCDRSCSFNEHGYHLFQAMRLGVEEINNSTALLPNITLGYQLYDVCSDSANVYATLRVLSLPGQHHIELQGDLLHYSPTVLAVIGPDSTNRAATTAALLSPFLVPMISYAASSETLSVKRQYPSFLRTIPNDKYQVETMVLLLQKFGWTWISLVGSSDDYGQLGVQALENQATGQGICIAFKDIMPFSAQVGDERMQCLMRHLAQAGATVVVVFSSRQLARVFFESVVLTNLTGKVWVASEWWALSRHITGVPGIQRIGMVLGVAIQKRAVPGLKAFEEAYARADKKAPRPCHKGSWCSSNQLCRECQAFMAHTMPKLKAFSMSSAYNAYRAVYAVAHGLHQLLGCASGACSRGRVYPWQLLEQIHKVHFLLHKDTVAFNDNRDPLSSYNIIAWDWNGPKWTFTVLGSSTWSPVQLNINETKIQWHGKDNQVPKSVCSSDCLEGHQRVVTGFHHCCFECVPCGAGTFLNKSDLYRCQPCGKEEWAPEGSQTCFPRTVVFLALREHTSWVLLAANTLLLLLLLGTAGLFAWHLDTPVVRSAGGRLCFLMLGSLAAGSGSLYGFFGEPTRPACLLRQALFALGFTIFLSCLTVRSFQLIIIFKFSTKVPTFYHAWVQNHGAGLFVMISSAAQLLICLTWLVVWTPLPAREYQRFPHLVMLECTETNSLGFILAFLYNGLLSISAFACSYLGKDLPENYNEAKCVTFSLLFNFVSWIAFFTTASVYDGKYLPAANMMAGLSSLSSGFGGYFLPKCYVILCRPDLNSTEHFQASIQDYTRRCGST
T1 sequence (Q923K1 21-858): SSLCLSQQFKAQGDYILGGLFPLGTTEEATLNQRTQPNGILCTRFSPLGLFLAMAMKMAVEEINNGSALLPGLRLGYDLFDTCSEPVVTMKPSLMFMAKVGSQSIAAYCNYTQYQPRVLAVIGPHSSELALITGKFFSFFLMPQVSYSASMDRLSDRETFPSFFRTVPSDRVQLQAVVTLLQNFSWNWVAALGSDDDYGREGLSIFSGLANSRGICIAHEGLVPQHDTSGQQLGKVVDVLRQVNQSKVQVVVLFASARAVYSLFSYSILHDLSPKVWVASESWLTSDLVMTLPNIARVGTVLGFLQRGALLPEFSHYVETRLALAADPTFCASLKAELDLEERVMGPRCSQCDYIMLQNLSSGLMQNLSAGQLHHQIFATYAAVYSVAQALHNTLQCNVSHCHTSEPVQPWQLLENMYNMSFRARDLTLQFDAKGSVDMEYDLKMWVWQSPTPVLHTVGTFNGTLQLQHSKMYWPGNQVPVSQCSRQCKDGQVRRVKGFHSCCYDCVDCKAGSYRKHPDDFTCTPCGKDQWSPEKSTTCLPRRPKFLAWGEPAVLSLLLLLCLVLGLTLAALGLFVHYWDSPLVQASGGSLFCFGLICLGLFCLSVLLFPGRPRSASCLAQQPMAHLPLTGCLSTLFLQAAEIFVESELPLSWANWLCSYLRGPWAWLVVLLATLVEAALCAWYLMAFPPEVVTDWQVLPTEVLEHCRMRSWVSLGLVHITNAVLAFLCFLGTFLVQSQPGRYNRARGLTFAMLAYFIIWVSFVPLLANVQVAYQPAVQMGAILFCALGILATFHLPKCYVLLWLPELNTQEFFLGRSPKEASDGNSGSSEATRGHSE
Test: Calcium assay, hTAS1R1 mutant co-expressed with rTAS1R3
Format: cell-based, human, rat
Description: Chimeric Gα proteins, such as Gα16Gust44, Gα16Gi3 or Gα15i2, are widely used in the functional expression of TAS1R receptors ([Backes et al., 2015]; [Suess et al., 2015]; [Toda et al., 2021], [Toda et al., 2013], [Toda et al., 2018]; [Zhang et al., 2008]). Chimeric Gα15i2 (([Toda et al., 2013]), Supplementary data) was generated by replacing the last five residues of the C-terminal tail of rat Gα15i2 (EINLL) (UniProt number G3V6N8; https://www.uniprot.org/uniprot/) with the counterpart sequence from human GNAI2 (DCGLF) (UniProt number P04899-1) and cloning into the pcDNA3.1/Hygro vector (Invitrogen, Thermo Fisher Scientific, Illkirch, France) between the HindIII and NotI restriction sites, resulting in the plasmid pcDNA3.1-Gα15i2. Chimeric Gα16Gust44 construct have already been reported ([Raliou et al., 2011]). Briefly, Gα16Gust44 was generated by replacing the C-terminal of Gα16 with the C-terminal 44 residues of gustducin. As previously described, hTAS1R1 was amplified from human fungiform papillae cDNA and cloned and inserted into pcDNA3 (Invitrogen), generating pcDNA3-TAS1R1-WT (wild-type) ([Raliou et al., 2011]). […] The cDNA coding region of rTAS1R3 was synthesized with optimized-codon usage for human expression (Genewiz) and was cloned and inserted into the mammalian pcDNA4/myc-HisA (Invitrogen) expression vector between the EcoRI and NotI restriction sites, resulting in the plasmid pcDNA4-rTAS1R3. […] The sequence integrity of all the plasmid constructs was verified via automated DNA sequencing (Genewiz).
The hTAS1R1 mutants were co-expressed with the rTAS1R3 subunit in HEK293 cells. […] As a control, the functionality of the mutated receptors was checked after stimulation with S807 (Fig. S8), which interacts with TAS1R1-TMD ([Zhang et al., 2008]).

SMILES	response to the agonist alone, vs WT (A302W)	EC50 [mM]	Max ∆F/F0 (A302W, GSH)	R1 = mutant EC50/WT EC50 (A302W, GSH)
CCCC(CCC)NC(=O)c1ccc2c(c1)OCO2 [S807, N-(heptan-4-yl)benzo[d][1,3]dioxole-5-carboxamide, reference compound]	strongly affected			
N[C@@H](CCC(=O)N[C@@H](CS)C(=O)NCC(=O)O)C(=O)O [GSH, γ-L-glutamyl-L-cysteinyl-glycine]		5.32 ± 2.54	0.09 ± 0.01	2.1
N[C@@H](CCC(=O)O)C(=O)O [L-Glu, L-glutamic acid, reference compound]	completely suppressed			
